In PMC4551390 (Leukemia, 2015):

Legend:
[1] = test system: relapsed and refractory CLL patients; assay: Phase I dose escalation: toxicity and tolerability; assay type: in vivo, human
[2] = test system: CLL cells; settings: pre-clinical; cited from earlier work
[3] = test system: T-cells; settings: pre-clinical; cited from earlier work
[4] = test system: relapsed and refractory CLL patients; assay: Phase I dose escalation: clinical response and PFS; assay type: in vivo, human
[5] = test system: MCL-1; assay: Western blot protein expression in patient samples; assay type: in vivo, human; settings: 2 and 4 hours of treatment vs pretreatment, P<0.0001
[6] = treatment related, all cohorts, N=52

CCc1cnn2c(NCc3ccc[n+]([O-])c3)cc(N3CCCC[C@H]3CCO)nc12 [Dinaciclib]
maximally tolerated dose ([1]; 2 hour infusion weekly x 3 of every 4 weeks): 14 mg/m^2 | other patients who discontinued therapy due to toxicity ([1]; all patients): Five | patients off therapy for adverse events ([1]; all patients): 10% | deaths within 30 days of last dose ([1]; all patients, two due to disease progression): 3 | No Pts with Dose Reduction ([1]; cohort 5 mg/m^2): 0 | Pts with DLT ([1]; cohort 5 mg/m^2): 0 | No Pts with Dose Reduction ([1]; cohort 7 mg/m^2): 0 | Pts with DLT ([1]; cohort 7 mg/m^2): 1 | No Pts with Dose Reduction ([1]; cohort 10 mg/m^2): 1 | Pts with DLT ([1]; cohort 10 mg/m^2): 0 | No Pts with Dose Reduction ([1]; cohort 14 mg/m^2): 5 | Pts with TLS ([1]; cohort 14 mg/m^2): 4 | Pts with TLS (Dialysis) ([1]; cohort 14 mg/m^2, requiring dialysis): 1 | No Pts with Dose Reduction ([1]; cohort 17 mg/m^2): 1 | Pts with TLS ([1]; cohort 17 mg/m^2): 1 (1) | Pts with TLS (Dialysis) ([1]; cohort 17 mg/m^2, requiring dialysis): 1 (1) | No Pts with Dose Reduction ([1]; cohort 7→10→14 mg/m^2): 1 | Pts with TLS ([1]; cohort 7→10→14 mg/m^2): 1 (1) | No Pts with Dose Reduction ([1]; cohort 10→14 mg/m^2): 1 | Pts with TLS ([1]; cohort 10→14 mg/m^2): 2 | Anemia, Grade 1 [1, 6]: 8 (15) No (%) | Anemia, Grade 2 [1, 6]: 17 (33) No (%) | Anemia, Grade 3 [1, 6]: 14 (27) No (%) | Anemia, Grade 4 [1, 6]: 1 (2) No (%) | Anemia, Total [1, 6]: 40 (77) No (%) | Constipation, Grade 1 [1, 6]: 4 (8) No (%) | Constipation, Grade 2 [1, 6]: 1 (2) No (%) | Constipation, Grade 3 [1, 6]: 1 (2) No (%) | Constipation, Grade 4 [1, 6]: 0 (0) No (%) | Constipation, Total [1, 6]: 6 (12) No (%) | Cytokine release, Grade 1 [1, 6]: 1 (2) No (%) | Cytokine release, Grade 2 [1, 6]: 6 (12) No (%) | Cytokine release, Grade 3 [1, 6]: 1 (2) No (%) | Cytokine release, Grade 4 [1, 6]: 0 (0) No (%) | Cytokine release, Total [1, 6]: 8 (15) No (%) | Diarrhea, Grade 1 [1, 6]: 14 (27) No (%) | Diarrhea, Grade 2 [1, 6]: 7 (13) No (%) | Diarrhea, Grade 3 [1, 6]: 2 (4) No (%) | Diarrhea, Grade 4 [1, 6]: 0 (0) No (%) | Diarrhea, Total [1, 6]: 23 (44) No (%) | Fatigue, Grade 1 [1, 6]: 7 (13) No (%) | Fatigue, Grade 2 [1, 6]: 8 (15) No (%) | Fatigue, Grade 3 [1, 6]: 2 (4) No (%) | Fatigue, Grade 4 [1, 6]: 0 (0) No (%) | Fatigue, Total [1, 6]: 17(33) No (%) | Herpes infection, Grade 1 [1, 6]: 2 (4) No (%) | Herpes infection, Grade 2 [1, 6]: 1 (2) No (%) | Herpes infection, Grade 3 [1, 6]: 0 (0) No (%) | Herpes infection, Grade 4 [1, 6]: 0 (0) No (%) | Herpes infection, Total [1, 6]: 3 (6) No (%) | Hyperglycemia, Grade 1 [1, 6]: 8 (15) No (%) | Hyperglycemia, Grade 2 [1, 6]: 16 (31) No (%) | Hyperglycemia, Grade 3 [1, 6]: 11 (21) No (%) | Hyperglycemia, Grade 4 [1, 6]: 0 (0) No (%) | Hyperglycemia, Total [1, 6]: 35 (67) No (%) | Hyperkalemia, Grade 1 [1, 6]: 7 (13) No (%) | Hyperkalemia, Grade 2 [1, 6]: 3 (6) No (%) | Hyperkalemia, Grade 3 [1, 6]: 3 (6) No (%) | Hyperkalemia, Grade 4 [1, 6]: 3 (6) No (%) | Hyperphosphatemia, Grade 1 [1, 6]: 6 (12) No (%) | Hyperphosphatemia, Grade 2 [1, 6]: 1 (2) No (%) | Hyperphosphatemia, Grade 3 [1, 6]: 0 (0) No (%) | Hyperphosphatemia, Grade 4 [1, 6]: 0 (0) No (%) | Hyperphosphatemia, Total [1, 6]: 7 (13) No (%) | Hypoalbuminemia, Grade 1 [1, 6]: 12 (23) No (%) | Hypoalbuminemia, Grade 2 [1, 6]: 3 (6) No (%) | Hypoalbuminemia, Grade 3 [1, 6]: 0 (0) No (%) | Hypoalbuminemia, Grade 4 [1, 6]: 0 (0) No (%) | Hypoalbuminemia, Total [1, 6]: 15 (29) No (%) | Hypocalcemia, Grade 1 [1, 6]: 17 (33) No (%) | Hypocalcemia, Grade 2 [1, 6]: 1 (2) No (%) | Hypocalcemia, Grade 3 [1, 6]: 9 (17) No (%) | Hypocalcemia, Grade 4 [1, 6]: 0 (0) No (%) | Hypocalcemia, Total [1, 6]: 27 (52) No (%) | Hypokalemia, Grade 1 [1, 6]: 17 (33) No (%) | Hypokalemia, Grade 2 [1, 6]: 1 (2) No (%) | Hypokalemia, Grade 3 [1, 6]: 9 (17) No (%) | Hypokalemia, Grade 4 [1, 6]: 0 (0) No (%) | Hypokalemia, Total [1, 6]: 27 (52) No (%) | Hyponatremia, Grade 1 [1, 6]: 18 (35) No (%) | Hyponatremia, Grade 2 [1, 6]: 0 (0) No (%) | Hyponatremia, Grade 3 [1, 6]: 1 (2) No (%) | Hyponatremia, Grade 4 [1, 6]: 0 (0) No (%) | Hyponatremia, Total [1, 6]: 19 (37) No (%) | Hypophosphatemia, Grade 1 [1, 6]: 6 (12) No (%) | Hypophosphatemia, Grade 2 [1, 6]: 5 (10) No (%) | Hypophosphatemia, Grade 3 [1, 6]: 6 (12) No (%) | Hypophosphatemia, Grade 4 [1, 6]: 1 (2) No (%) | Hypophosphatemia, Total [1, 6]: 18 (35) No (%) | Increased ALT, Grade 1 [1, 6]: 6 (12) No (%) | Increased ALT, Grade 2 [1, 6]: 9 (17) No (%) | Increased ALT, Grade 3 [1, 6]: 5 (10) No (%) | Increased ALT, Grade 4 [1, 6]: 0 (0) No (%) | Increased ALT, Total [1, 6]: 20 (38) No (%) | Increased AST, Grade 1 [1, 6]: 11 (21) No (%) | Increased AST, Grade 2 [1, 6]: 8 (15) No (%) | Increased AST, Grade 3 [1, 6]: 13 (25) No (%) | Increased AST, Grade 4 [1, 6]: 2 (4) No (%) | Increased AST, Total [1, 6]: 34 (65) No (%) | Increased Alkaline Phosphatase, Grade 1 [1, 6]: 8 (15) No (%) | Increased Alkaline Phosphatase, Grade 2 [1, 6]: 1 (2) No (%) | Increased Alkaline Phosphatase, Grade 3 [1, 6]: 0 (0) No (%) | Increased Alkaline Phosphatase, Grade 4 [1, 6]: 0 (0) No (%) | Increased Alkaline Phosphatase, Total [1, 6]: 9 (17) No (%) | Increased bilirubin, Grade 1 [1, 6]: 5 (10) No (%) | Increased bilirubin, Grade 2 [1, 6]: 0 (0) No (%) | Increased bilirubin, Grade 3 [1, 6]: 0 (0) No (%) | Increased bilirubin, Grade 4 [1, 6]: 0 (0) No (%) | Increased bilirubin, Total [1, 6]: 5 (10) No (%) | Increased creatinine, Grade 1 [1, 6]: 11 (21) No (%) | Increased creatinine, Grade 2 [1, 6]: 3 (6) No (%) | Increased creatinine, Grade 3 [1, 6]: 0 (0) No (%) | Increased creatinine, Grade 4 [1, 6]: 0 (0) No (%) | Increased creatinine, Total [1, 6]: 14 (27) No (%) | Nausea, Grade 1 [1, 6]: 10 (19) No (%) | Nausea, Grade 2 [1, 6]: 3 (6) No (%) | Nausea, Grade 3 [1, 6]: 0 (0) No (%) | Nausea, Grade 4 [1, 6]: 0 (0) No (%) | Nausea, Total [1, 6]: 13 (25) No (%) | Neutropenia, Grade 1 [1, 6]: 3 (6) No (%) | Neutropenia, Grade 2 [1, 6]: 2 (4) No (%) | Neutropenia, Grade 4 [1, 6]: 28 (54) No (%) | Neutropenia, Total [1, 6]: 44 (85) No (%) | Pharyngitis/sinusitis/respiratory infection, Grade 1 [1, 6]: 2 (4) No (%) | Pharyngitis/sinusitis/respiratory infection, Grade 2 [1, 6]: 2 (4) No (%) | Pharyngitis/sinusitis/respiratory infection, Grade 3 [1, 6]: 0 (0) No (%) | Pharyngitis/sinusitis/respiratory infection, Grade 4 [1, 6]: 0 (0) No (%) | Pharyngitis/sinusitis/respiratory infection, Total [1, 6]: 4 (8) No (%) | Pneumonia, Grade 1 [1, 6]: 0 (0) No (%) | Pneumonia, Grade 2 [1, 6]: 0 (0) No (%) | Pneumonia, Grade 3 [1, 6]: 2 (4) No (%) | Pneumonia, Total [1, 6]: 2 (4) No (%) | Sepsis, Grade 1 [1, 6]: 0 (0) No (%) | Sepsis, Grade 2 [1, 6]: 0 (0) No (%) | Sepsis, Grade 3 [1, 6]: 1 (2) No (%) | Sepsis, Grade 4 [1, 6]: 0 (0) No (%) | Sepsis, Total [1, 6]: 1 (2) No (%) | Thrombocytopenia, Grade 1 [1, 6]: 10 (19) No (%) | Thrombocytopenia, Grade 2 [1, 6]: 6 (12) No (%) | Thrombocytopenia, Grade 3 [1, 6]: 11 (21) No (%) | Thrombocytopenia, Grade 4 [1, 6]: 10 (19) No (%) | Thrombocytopenia, Total [1, 6]: 37 (71) No (%) | Tumor lysis syndrome, Grade 1 [1, 6]: 0 (0) No (%) | Tumor lysis syndrome, Grade 2 [1, 6]: 0 (0) No (%) | Tumor lysis syndrome, Grade 3 [1, 6]: 7 (13) No (%) | Tumor lysis syndrome, Grade 4 [1, 6]: 1 (2) No (%) | Tumor lysis syndrome, Total [1, 6]: 8 (15) No (%) | Urosepsis, Grade 1 [1, 6]: 0 (0) No (%) | Urosepsis, Grade 2 [1, 6]: 0 (0) No (%) | Urosepsis, Grade 3 [1, 6]: 0 (0) No (%) | Urosepsis, Grade 4 [1, 6]: 1 (2) No (%) | Urosepsis, Total [1, 6]: 1 (2) No (%) | therapeutic efficacy against CLL cells as compared to flavopiridol [2]: improved therapeutic efficacy | cytotoxicity to T-cells [3]: not cytotoxic | No (%) of Responders ([4]; 14 mg/mg/m^2 dosing during treatment, 35 pts): 22 (63) No (%) | response rate ([4]; 21 patients without del(17)(p13.1)): 57% | response rate ([4]; 25 patients with del(17)(p13.1)): 56% | 95% confidence interval of response rate ([4]; 35 patients at phase 2 dose of 14 mg/m^2): 47–79% | No (%) of Responders ([4]; Total, 52 pts): 28 (54) No (%) | overall response to therapy ([4]; all 52 patients, IWCLL 2008 partial responses): 54% | complete responses ([4]; all patients): no complete responses | patients off therapy for progression of disease ([4]; all patients): 27% | median progression free survival ([4]; all patients, Kaplan-Meier estimate): 481 days | median time to response (range) ([4]; all responders): 85 (27–244) days | response rate ([4]; bulky disease): 52% | No (%) of Responders ([4]; dose level 5 mg/m^2, 4 pts): 1 (25) No (%) | No (%) of Responders ([4]; dose level 10 mg/m^2, 3 pts): 2 (67) No (%) | No (%) of Responders ([4]; dose level 14 mg/m^2, 16 pts): 11 (69) No (%) | No (%) of Responders ([4]; dose level 17 mg/m^2, 4 pts): 1 (25) No (%) | No (%) of Responders ([4]; dose level 10→14 mg/m^2, 6 pts): 4 (67) No (%) | response rate ([4]; non-bulky (< 5 cm nodes) disease): 71% | response rate ([4]; prior flavopiridol exposure): 38% | response rate ([4]; recommended phase II dose (14 mg/m^2) at the final dose, 35 patients): 63% | MCL-1 protein expression [5]: significantly reduced expression
